# Reference: patent US20080009418A1, “Selective Inhibitors” (Alchemia LTD., priority 2004, published 2008)
# Tests used:
# [1] = target: T1, Human δ-opioid (DOP) (Homo sapiens, UniProt P41143); assay: Radioligand binding, human δ-opioid (DOP) membranes, FlashPlate, [3H]-Bremazocine; settings: compound at 10 μM
# T1 construct: purchased Perkin Elmer Biosignal
# Summary of the method: (§1)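 Cloned human receptor membranes were coated onto FlashPlate wells and incubated with radioligand and compound (added from a 0.5 mM DMSO daughter plate) for 1 hour at room temperature in the dark. Scintillation counting gave percent inhibition, with DMSO defining total and reference ligand defining non-specific binding.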
# [2] = target: T2, Human Melanocortin (MC3) (Homo sapiens, UniProt P41968); assay: Radioligand binding, human melanocortin MC3 membranes, FlashPlate, [125I]-NDP-αMSH; settings: compound at 10 μM
# T2 construct: purchased Perkin Elmer Biosignal
# Summary of the method: as §1
# [3] = target: T3, Human Melanocortin (MC4) (Homo sapiens, UniProt P32245); assay: Radioligand binding, human melanocortin MC4 membranes, FlashPlate, [125I]-NDP-αMSH; settings: compound at 10 μM
# T3 construct: purchased Perkin Elmer Biosignal
# Summary of the method: as §1
# [4] = target: T4, Human neuropeptide Y (NPY-Y1) (Homo sapiens, UniProt P25929); assay: Radioligand binding, human neuropeptide Y NPY-Y1 membranes, FlashPlate, [125I]-PYY; settings: compound at 10 μM
# T4 construct: purchased Perkin Elmer Biosignal
# T4 sequence (P25929 1-384): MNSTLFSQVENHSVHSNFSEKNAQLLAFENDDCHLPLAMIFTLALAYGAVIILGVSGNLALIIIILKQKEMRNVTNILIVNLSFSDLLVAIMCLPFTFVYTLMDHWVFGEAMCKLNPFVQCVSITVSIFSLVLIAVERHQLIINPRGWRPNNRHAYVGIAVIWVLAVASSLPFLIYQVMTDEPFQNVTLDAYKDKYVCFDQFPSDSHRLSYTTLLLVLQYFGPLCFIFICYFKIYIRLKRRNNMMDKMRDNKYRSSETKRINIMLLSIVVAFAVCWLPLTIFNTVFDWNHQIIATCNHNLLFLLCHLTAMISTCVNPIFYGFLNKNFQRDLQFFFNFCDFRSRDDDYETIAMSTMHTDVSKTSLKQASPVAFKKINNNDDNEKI
# Summary of the method: as §1
# [5] = target: T5, Human opioid (ORL1) (Homo sapiens, UniProt P41146); assay: Radioligand binding, human opioid ORL1 membranes, FlashPlate, [125I]-Nociceptin; settings: compound at 10 μM
# T5 construct: purchased Perkin Elmer Biosignal
# Summary of the method: as §1
# [6] = target: T6, Human κ-Opioid (KOP) (Homo sapiens, UniProt P41145); assay: Radioligand binding, human κ-opioid (KOP) membranes, filtration, [3H]-Diprenorphine; settings: compound at 10 μM
# T6 construct: purchased Perkin Elmer Biosignal
# Summary of the method: (§2)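 Percent inhibition of radioligand binding measured on recombinant human membranes: NK1 with [125I]-Substance P, KOP with [3H]-Diprenorphine. Incubation 1 h at room temperature, then harvest onto 0.3% PEI-soaked filters, cold Tris-HCl pH 7.4 washes and scintillation counting; non-specific binding from reference ligand wells.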
# [7] = target: T7, Human melanin-concentrating hormone (MCH1) (Homo sapiens, UniProt Q99705); assay: Radioligand binding, human melanin-concentrating hormone MCH1 membranes, FlashPlate, [125I]-S36057; settings: compound at 10 μM; for A6: inhibition of radioligand binding, human melanin-concentrating hormone (MCH1): [125I]-S36057
# T7 construct: purchased Perkin Elmer Biosignal
# Summary of the method: as §1
# [8] = target: T8, Mouse urotensin (mUR2) (Mus musculus, UniProt Q8VIH9); assay: Radioligand binding, mouse urotensin mUR2 membranes, FlashPlate, [125I]-Urotensin II; settings: compound at 10 μM
# T8 construct: purchased Perkin Elmer Biosignal
# T8 sequence (Q8VIH9 1-385): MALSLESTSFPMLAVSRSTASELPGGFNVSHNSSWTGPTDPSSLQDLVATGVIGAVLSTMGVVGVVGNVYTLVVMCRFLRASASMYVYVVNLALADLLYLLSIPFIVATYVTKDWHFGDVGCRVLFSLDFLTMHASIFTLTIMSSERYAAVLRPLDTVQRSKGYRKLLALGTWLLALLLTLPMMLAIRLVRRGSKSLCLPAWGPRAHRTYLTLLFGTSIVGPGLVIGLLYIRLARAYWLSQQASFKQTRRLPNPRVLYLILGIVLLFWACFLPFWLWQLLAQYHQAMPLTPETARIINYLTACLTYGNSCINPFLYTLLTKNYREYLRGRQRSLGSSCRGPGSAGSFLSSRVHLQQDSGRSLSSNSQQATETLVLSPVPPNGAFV
# Summary of the method: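 Cloned mouse urotensin (mUR2) receptor membranes from Perkin Elmer Biosignal were immobilized in FlashPlate microplates using a proprietary coating. Each well got 19.5 μl buffer, then 0.5 μl of DMSO, reference ligand, or compound. Adding 5 μl of [125I]-Urotensin II, diluted to 5× final concentration in binding buffer, started binding. Plates were sealed with TopSeal-A and incubated 1 hour at room temperature in the dark. Wells were counted for 30 seconds each on a TopCount after a 60-second delay, and percentage inhibition was calculated.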
# [9] = target: T9, Human μ-opioid (MOP) (Homo sapiens, UniProt P35372); assay: Radioligand binding, human μ-opioid (MOP) membranes, FlashPlate, [3H]-Naloxone; settings: compound at 10 μM
# T9 construct: purchased Perkin Elmer Biosignal
# Summary of the method: as §1
# [10] = target: T10, Human neurokinin (NK1) (Homo sapiens, UniProt P25103); assay: Radioligand binding, human neurokinin NK1 membranes, filtration, [125I]-Substance P; settings: compound at 10 μM
# T10 construct: purchased Perkin Elmer Biosignal
# Summary of the method: as §2
# [11] = target: T11, Human melanocortin (MC5) (Homo sapiens, UniProt P33032); assay: Radioligand binding, human melanocortin MC5 membranes, FlashPlate, [125I]-NDP-αMSH; settings: compound at 10 μM
# T11 construct: purchased Perkin Elmer Biosignal
# Summary of the method: as §1
# T10 sequence (P25103 whole entry): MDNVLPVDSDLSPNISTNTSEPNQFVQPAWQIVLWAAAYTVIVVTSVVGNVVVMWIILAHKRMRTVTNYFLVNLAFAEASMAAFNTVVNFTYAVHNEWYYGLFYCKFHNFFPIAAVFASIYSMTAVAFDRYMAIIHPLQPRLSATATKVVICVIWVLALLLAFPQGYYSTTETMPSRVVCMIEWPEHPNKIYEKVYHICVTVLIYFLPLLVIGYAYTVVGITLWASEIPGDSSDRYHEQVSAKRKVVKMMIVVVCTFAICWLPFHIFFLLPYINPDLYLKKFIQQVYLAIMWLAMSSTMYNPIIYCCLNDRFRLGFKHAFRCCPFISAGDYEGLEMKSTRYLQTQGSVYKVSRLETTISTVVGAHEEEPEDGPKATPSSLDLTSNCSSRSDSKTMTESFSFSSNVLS
# T1 sequence (P41143 whole entry): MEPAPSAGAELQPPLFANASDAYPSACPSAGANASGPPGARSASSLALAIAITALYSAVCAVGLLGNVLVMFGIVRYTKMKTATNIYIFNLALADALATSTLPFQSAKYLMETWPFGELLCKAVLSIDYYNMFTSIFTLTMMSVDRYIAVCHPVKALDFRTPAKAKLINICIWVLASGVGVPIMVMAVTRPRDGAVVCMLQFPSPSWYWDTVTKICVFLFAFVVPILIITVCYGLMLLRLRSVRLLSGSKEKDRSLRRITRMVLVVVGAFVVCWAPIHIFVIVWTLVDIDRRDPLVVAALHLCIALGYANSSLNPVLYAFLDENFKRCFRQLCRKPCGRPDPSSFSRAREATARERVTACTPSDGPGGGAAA
# T6 sequence (P41145 whole entry): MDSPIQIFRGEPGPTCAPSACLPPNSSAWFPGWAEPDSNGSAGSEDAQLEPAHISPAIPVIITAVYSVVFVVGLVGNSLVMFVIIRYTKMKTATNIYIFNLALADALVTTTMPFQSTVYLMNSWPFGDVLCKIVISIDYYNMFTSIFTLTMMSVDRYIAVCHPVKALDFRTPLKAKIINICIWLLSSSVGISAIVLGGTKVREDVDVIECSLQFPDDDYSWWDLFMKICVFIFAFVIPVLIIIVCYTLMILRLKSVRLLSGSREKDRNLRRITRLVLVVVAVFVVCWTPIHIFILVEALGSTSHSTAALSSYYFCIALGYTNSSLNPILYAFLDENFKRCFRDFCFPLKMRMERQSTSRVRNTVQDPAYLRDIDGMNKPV
# T3 sequence (P32245 whole entry): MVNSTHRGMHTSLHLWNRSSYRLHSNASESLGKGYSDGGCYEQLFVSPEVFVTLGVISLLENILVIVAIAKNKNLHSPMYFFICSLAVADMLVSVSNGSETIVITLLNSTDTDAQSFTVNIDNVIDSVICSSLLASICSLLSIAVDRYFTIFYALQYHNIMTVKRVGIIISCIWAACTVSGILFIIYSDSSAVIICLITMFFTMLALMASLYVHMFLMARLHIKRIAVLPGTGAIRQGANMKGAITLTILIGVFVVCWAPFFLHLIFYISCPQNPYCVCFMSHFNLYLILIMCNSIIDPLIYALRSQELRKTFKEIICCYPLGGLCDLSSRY
# T2 sequence (P41968 whole entry): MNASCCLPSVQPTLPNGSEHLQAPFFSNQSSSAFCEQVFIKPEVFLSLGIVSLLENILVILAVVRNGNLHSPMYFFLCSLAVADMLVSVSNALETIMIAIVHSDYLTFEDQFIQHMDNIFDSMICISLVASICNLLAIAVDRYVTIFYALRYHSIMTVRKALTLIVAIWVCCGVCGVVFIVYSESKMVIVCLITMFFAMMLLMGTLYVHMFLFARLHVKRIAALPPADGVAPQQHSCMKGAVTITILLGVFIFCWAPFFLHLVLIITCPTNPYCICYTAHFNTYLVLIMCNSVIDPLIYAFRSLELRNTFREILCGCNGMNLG
# T11 sequence (P33032 whole entry): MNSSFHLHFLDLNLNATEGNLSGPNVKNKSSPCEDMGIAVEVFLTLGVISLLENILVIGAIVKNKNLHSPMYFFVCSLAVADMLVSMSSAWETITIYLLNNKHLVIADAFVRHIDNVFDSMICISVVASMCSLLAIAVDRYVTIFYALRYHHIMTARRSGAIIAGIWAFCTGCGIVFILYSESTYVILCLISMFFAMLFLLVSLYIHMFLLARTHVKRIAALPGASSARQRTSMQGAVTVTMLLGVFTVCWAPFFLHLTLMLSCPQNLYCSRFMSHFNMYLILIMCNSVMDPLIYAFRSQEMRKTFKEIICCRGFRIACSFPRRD
# T5 sequence (P41146 whole entry): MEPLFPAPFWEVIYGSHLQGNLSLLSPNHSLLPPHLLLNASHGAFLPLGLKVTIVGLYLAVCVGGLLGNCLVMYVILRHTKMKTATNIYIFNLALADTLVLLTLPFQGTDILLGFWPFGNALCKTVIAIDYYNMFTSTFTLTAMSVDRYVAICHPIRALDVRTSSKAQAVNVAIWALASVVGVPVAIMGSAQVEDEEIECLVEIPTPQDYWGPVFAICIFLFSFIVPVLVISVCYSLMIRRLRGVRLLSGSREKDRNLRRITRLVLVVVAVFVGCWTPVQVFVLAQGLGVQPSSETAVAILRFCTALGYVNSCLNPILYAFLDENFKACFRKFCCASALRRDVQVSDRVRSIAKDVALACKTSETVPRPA
# T7 sequence (Q99705 whole entry): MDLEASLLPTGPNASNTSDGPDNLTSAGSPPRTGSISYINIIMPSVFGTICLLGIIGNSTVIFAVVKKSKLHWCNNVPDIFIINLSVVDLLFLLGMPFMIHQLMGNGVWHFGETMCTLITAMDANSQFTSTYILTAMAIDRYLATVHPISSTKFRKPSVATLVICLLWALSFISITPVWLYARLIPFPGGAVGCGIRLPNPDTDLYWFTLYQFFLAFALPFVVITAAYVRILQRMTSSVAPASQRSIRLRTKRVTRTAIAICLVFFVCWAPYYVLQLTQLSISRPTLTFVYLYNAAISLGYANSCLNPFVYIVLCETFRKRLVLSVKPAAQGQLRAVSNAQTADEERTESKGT
# T9 sequence (P35372 whole entry): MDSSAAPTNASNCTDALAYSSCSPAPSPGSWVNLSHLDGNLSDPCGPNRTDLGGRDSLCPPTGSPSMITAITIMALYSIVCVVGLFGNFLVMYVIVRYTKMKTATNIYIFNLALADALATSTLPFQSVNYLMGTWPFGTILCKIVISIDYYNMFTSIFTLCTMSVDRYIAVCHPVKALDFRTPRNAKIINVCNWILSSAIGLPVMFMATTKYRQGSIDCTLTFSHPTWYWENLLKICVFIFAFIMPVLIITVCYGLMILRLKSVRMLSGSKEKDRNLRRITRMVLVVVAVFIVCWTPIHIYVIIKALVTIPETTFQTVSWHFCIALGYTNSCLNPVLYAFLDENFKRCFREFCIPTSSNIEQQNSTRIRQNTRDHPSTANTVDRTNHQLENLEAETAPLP
SMILES,"A1: inhibition of radioligand binding, human δ-opioid (DOP) ([1]; [3H]-Bremazocine)","A3: inhibition of radioligand binding, human melanocortin (MC3) ([2]; [125I]-NDP-αMSH)","A4: inhibition of radioligand binding, human melanocortin (MC4) ([3]; [125I]-NDP-αMSH)","A9: inhibition of radioligand binding, human neuropeptide Y (NPY-Y1) ([4]; [125I]-PYY)","A10: inhibition of radioligand binding, human opioid (ORL1) ([5]; [125I]-Nociceptin)","A6: inhibition of radioligand binding, human melanin-concentrating hormone (MCH1) [7]","A11: inhibition of radioligand binding, mouse urotensin (mUR2) ([8]; [125I]-Urotensin II)","A7: inhibition of radioligand binding, human μ-opioid (MOP) ([9]; [3H]-Naloxone)","A8: inhibition of radioligand binding, human neurokinin (NK1) ([10]; [125I]-Substance P)","A5: inhibition of radioligand binding, human melanocortin (MC5) ([11]; [125I]-NDP-αMSH)","A2: inhibition of radioligand binding, human κ-opioid (KOP) ([6]; [3H]-Diprenorphine)",also measured
"NCCC(=O)NC1C(OCc2ccc(Cl)cc2)OC(COCc2ccc(Cl)cc2)C(O)C1OCc1ccc2ccccc2c1 (single isomer, unassigned) [compound 481]",− (“−” indicates less than 50% inhibition at 10 μM),+ (“+” indicates greater than 50% inhibition at 10 μM),+ (“+” indicates greater than 50% inhibition at 10 μM),− (“−” indicates less than 50% inhibition at 10 μM),+ (“+” indicates greater than 50% inhibition at 10 μM),+ (“+” indicates greater than 50% inhibition at 10 μM),− (“−” indicates less than 50% inhibition at 10 μM),− (“−” indicates less than 50% inhibition at 10 μM),+ (“+” indicates greater than 50% inhibition at 10 μM),+ (“+” indicates greater than 50% inhibition at 10 μM),,"A2: inhibition of radioligand binding, human κ-opioid (KOP) ([6]; [3H]-Diprenorphine, 10 µM): + (“+” indicates greater than 50% inhibition at 10 μM)"
NCCCC(=O)NC1C(OCc2ccccc2)OC(COCc2ccc(Cl)cc2)C(O)C1OCc1ccc2ccccc2c1 (stereo not shown) [compound 377],− (“−” indicates less than 50% inhibition at 10 μM),+ (“+” indicates greater than 50% inhibition at 10 μM),+ (“+” indicates greater than 50% inhibition at 10 μM),− (“−” indicates less than 50% inhibition at 10 μM),− (“−” indicates less than 50% inhibition at 10 μM),− (“−” indicates less than 50% inhibition at 10 μM),− (“−” indicates less than 50% inhibition at 10 μM),− (“−” indicates less than 50% inhibition at 10 μM),+ (“+” indicates greater than 50% inhibition at 10 μM),+ (“+” indicates greater than 50% inhibition at 10 μM),− (“−” indicates less than 50% inhibition at 10 μM),
COCC1OC(OCc2ccc(Cl)cc2)C(NC(=O)CN)C(OCc2ccc(Cl)cc2)C1O (stereo not shown) [compound 199],,,,,,,,,,,,"A1: inhibition of radioligand binding ([1]; [3H]-Bremazocine, FlashPlate): − (“−” indicates less than 50% inhibition at 10 μM); A3: inhibition of radioligand binding ([2]; [125I]-NDP-αMSH, FlashPlate): − (“−” indicates less than 50% inhibition at 10 μM); A4: inhibition of radioligand binding ([3]; [125I]-NDP-αMSH, FlashPlate): − (“−” indicates less than 50% inhibition at 10 μM); A9: inhibition of radioligand binding ([4]; [125I]-PYY, FlashPlate): − (“−” indicates less than 50% inhibition at 10 μM); A10: inhibition of radioligand binding ([5]; [125I]-Nociceptin, FlashPlate): − (“−” indicates less than 50% inhibition at 10 μM); A2: inhibition of radioligand binding ([6]; [3H]-Diprenorphine, filtration): − (“−” indicates less than 50% inhibition at 10 μM); A6: inhibition of radioligand binding ([7]; [125I]-S36057, FlashPlate): − (“−” indicates less than 50% inhibition at 10 μM); A11: inhibition of radioligand binding ([8]; [125I]-Urotensin II, FlashPlate): − (“−” indicates less than 50% inhibition at 10 μM); A7: inhibition of radioligand binding ([9]; [3H]-Naloxone, FlashPlate): − (“−” indicates less than 50% inhibition at 10 μM); A8: inhibition of radioligand binding ([10]; [125I]-Substance P, filtration): + (“+” indicates greater than 50% inhibition at 10 μM); A5: inhibition of radioligand binding ([11]; [125I]-NDP-αMSH, FlashPlate): − (“−” indicates less than 50% inhibition at 10 μM)"
CO[C@H]1[C@H](O)[C@@H](COCc2ccc3ccccc3c2)OC(OCc2ccc(Cl)cc2)[C@@H]1NC(=O)C1CCCN(C(=N)N)C1 (stereo partly shown) [compound 353],− (“−” indicates less than 50% inhibition at 10 μM),− (“−” indicates less than 50% inhibition at 10 μM),− (“−” indicates less than 50% inhibition at 10 μM),− (“−” indicates less than 50% inhibition at 10 μM),− (“−” indicates less than 50% inhibition at 10 μM),− (“−” indicates less than 50% inhibition at 10 μM),− (“−” indicates less than 50% inhibition at 10 μM),− (“−” indicates less than 50% inhibition at 10 μM),+ (“+” indicates greater than 50% inhibition at 10 μM),− (“−” indicates less than 50% inhibition at 10 μM),− (“−” indicates less than 50% inhibition at 10 μM),
COC[C@H]1OC(OCCc2ccccc2)[C@H](NC(=O)CNC(=N)N)[C@@H](OCc2ccc(-c3ccccc3)cc2)[C@@H]1O (stereo partly shown) [compound 40],,,,,,,,,,,,A1 radioligand binding inhibition ([1]; human δ-opioid (DOP) membranes): − (“−” indicates less than 50% inhibition at 10 μM); A3 radioligand binding inhibition ([2]; human melanocortin MC3 membranes): + (“+” indicates greater than 50% inhibition at 10 μM); A4 radioligand binding inhibition ([3]; human melanocortin MC4 membranes): + (“+” indicates greater than 50% inhibition at 10 μM); A9 radioligand binding inhibition ([4]; human NPY-Y1 membranes): − (“−” indicates less than 50% inhibition at 10 μM); A10 radioligand binding inhibition ([5]; human ORL1 membranes): − (“−” indicates less than 50% inhibition at 10 μM); A2 radioligand binding inhibition ([6]; human κ-opioid (KOP) membranes): − (“−” indicates less than 50% inhibition at 10 μM); A6 radioligand binding inhibition ([7]; human MCH1 membranes): + (“+” indicates greater than 50% inhibition at 10 μM); A11 radioligand binding inhibition ([8]; mouse urotensin mUR2 membranes): − (“−” indicates less than 50% inhibition at 10 μM); A7 radioligand binding inhibition ([9]; human μ-opioid (MOP) membranes): − (“−” indicates less than 50% inhibition at 10 μM); A8 radioligand binding inhibition ([10]; human neurokinin NK1 membranes): − (“−” indicates less than 50% inhibition at 10 μM); A5 radioligand binding inhibition ([11]; human melanocortin MC5 membranes): + (“+” indicates greater than 50% inhibition at 10 μM)
